Common to all, as to format: functional
Test [1] is described as follows: Local anaesthetic activity in rat sciatic nerve assessed as vitality time at 1.5%.
Test [2] in a line: Local anaesthetic activity in rat sciatic nerve assessed as time required to decrease compound action potential to 50 % at 1.5% relative to Lidocaine. More on the design: scale not given: the % may be the effect or the level left.
The nature of test [3]: Local anaesthetic activity in rat sciatic nerve assessed as time required to decrease compound action potential to 50 % relative to Lidocaine. More on the design: scale not given: the % may be the effect or the level left.
A short description of test [4]: Local anaesthetic activity in rat sciatic nerve assessed as time required to decrease compound action potential to 100 %.
Test [5] can be described thus: Local anaesthetic activity in rat sciatic nerve assessed as time required to decrease compound action potential to 100 % at 1.5%.
A short description of test [6]: Local anaesthetic activity in rat sciatic nerve assessed as time required to decrease compound action potential to 50 %.
Test [7] in a line: Local anaesthetic activity in rat sciatic nerve assessed as time required to decrease compound action potential to 100 % at 1.5% relative to Lidocaine. More on the design: scale not given: the % may be the effect or the level left.
Test [8] in a line: Local anaesthetic activity in rat sciatic nerve assessed as time required to decrease compound action potential to recover to 50 % at 1.5%.
Test [9] in a line: Local anaesthetic activity in rat sciatic nerve assessed as time required to decrease compound action potential to recover to 50 %.
Test [10] in a line: Local anaesthetic activity in rat sciatic nerve assessed as time required to decrease compound action potential to 50 % at 1.5%.
The nature of test [11]: Local anaesthetic activity in rat sciatic nerve assessed as vitality time.
Test [12] can be described thus: Local anaesthetic activity in rat sciatic nerve assessed as time required to decrease compound action potential to 100 % relative to Lidocaine. More on the design: scale not given: the % may be the effect or the level left.

`O=C(CN1CCOCC1)Nc1nsc2ccccc12`: the VT50 in test [1] amounted to 666.7 min; in test [11], 511 min. Also, the Activity in test [2] was 26.2%; in [3] it was 57.1%; in test [7], 26%; in [12], 140%. Also, the IT100 is on record as 10 min in test [4] and 19 min in test [5]. Besides, the IT50 in test [6] was 5.5 min; in [10] it was 8.1 min. Besides, the RT50 is 40 min in [8] and 88 min in test [9].
In the case of `O=C(CN1CCCC1)Nc1nsc2ccccc12`, the VT50 in test [1] was found to be 705.5 min; in test [11], 610 min. Also, the Activity in test [2] is recorded as 26.4%; in test [3], 62.8%; in test [7], 49.5%; in test [12] it was 100%. In addition, the IT100 in [4] was found to be 14 min; in [5], 28.3 min. Also, the values for the IT50 in test [6] and in test [10] were 5 min and 11.9 min, respectively. Also, the RT50 in test [8] is 101.5 min; in test [9], 105 min.

The values are drawn from ChEMBL document CHEMBL1153863, “Evaluation of the local anaesthetic activity of 3-aminobenzo[d]isothiazole derivatives using the rat sciatic nerve model” (2009).
